From patent publication US12569495B2, “Inhibitors of porcine reproductive and respiratory syndrome virus” (UNIVERSITY OF CONNECTICUT, priority 2020, dated 2026)
“And” between values parts separate entries of the source, which are not always exact repeats. Identical values can stand only once. “Also recorded” adds a separate entry of the source.

Experiments:
[1] = system: porcine alveolar macrophages (PAMs); experiment: MTT cytotoxicity assay in PAMs; type: cell-based, pig
Method: (§1) The cytotoxicity of selected screening compounds was determined in porcine alveolar macrophages (PAMs) the principal host cell of productive PRRSV infection. Briefly, various concentrations of the compounds were added to PAMs seeded in 24-well plates and incubated for 24 h. Then 50 μl of the MTT assay labeling reagent (In Vitro Toxicology Assay Kit, MTT based, Sigma-Aldrich) were added to each well and incubated for 4 h before 500 μl of the solubilization solution was added into each well to fully dissolve the formazan crystal by overnight incubation. The absorbance of samples was measured using a spectrophotometry microplate reader at 600 nm. PAMs treated with DMSO served as the controls.

[2] = MTT cytotoxicity assay in PAMs; type: cell-based, pig; settings: pig, porcine alveolar macrophages (PAMs), 24 h incubation, read-out: LC50, MTT assay
Method: as §1

[3] = system: PRRSV strains VR-2332, SDSU73, NADC30 (Type II), or Lelystad (Type I); experiment: qRT-PCR for PRRSV RNA in PAMs infected by different strains; type: cell-based; settings: 15 μM; 4 h pre-treatment, 24 h post
Method: Total RNA was extracted from PAMs infected with PRRSV using RNeasy Mini Kit (Qiagen, Germantown, MD) according to the manufacturer's instruction. RNA concentrations were measured using a Nanodrop spectrophotometer (Thermo Fisher Scientific). GAPDH was used as a housekeeping gene for gene expression normalization. Data were processed with the software associated with ABI 7500.
For PRRSV infection of PAM cells, PAMs were seeded one day prior to infection. Control cells were treated with DMSO and test cells were treated with the selected screening compounds (5-20 μM) for 4 h before inoculation, during the 1 h PRRSV inoculation, and for 24 h after inoculation. Cells were inoculated with VR-2332, SDSU73, NADC30 or Lelystad PRRSV at MOI=0.1 for 1 h. The 24 h cell medium supernatant was stored at −80° C. until use.
The inhibitory effect of B7 was further tested on multiple strains of PRRSV. […] This inhibitory effect is further confirmed by viral titration results for the culture media of infected PAMs, with 2.8-3.1 log reduction of viral titers across the 3 Type II PRRSV strains and 2.2 log reduction of viral titer for the type I strain (Lelystad) by 15 μM B7 treatment (FIG. 5D). Thus, compound B7 indeed inhibits the PRRSV infection of PAMs. […]

[4] = Rat acute toxicity study; type: in vivo, Sprague Dawley laboratory male rats
Method: The study was conducted as: • 1. Eight 10-week Sprague Dawley laboratory male rats (˜260 g each) were randomly selected into two groups (n=4), with group 1 for control and group 2 for B7-treatment. • 2. Day 0, injection of B7 drug. The intramuscular (IM) injection was vehicle for group 1, and 4 mg/kg B7 per rat for group 2, with 0.15 mL of volume per rat, to the left thigh region. The B7 was dissolved in vehicle containing 30% DMSO and 50% propylene glycol (PG), and 20% 20 mM Tris·HCl, pH 8.0. • 3. Days 1-7 observation of rats with daily body weight and temperature measurement and making records of any abnormal behavior. • 4. Day 7 necropsy: Euthanize the rats with CO2, immediately followed by blood sample collection from heart. Conduct postmortem rat gross-anatomic pathology analysis (brain, heart, lung, liver, kidney, spleen). • 5. Conduct clinical pathology analysis (CBC/Chemistry by IDDEX Bioanalytics) for the collected blood samples.

[5] = rat, IM 4 mg/kg, Day 7 blood, mean n=4

Cc1cc(F)ccc1S(=O)(=O)Nc1nc2ccccc2nc1Nc1cccc(S(=O)(=O)N2CCOCC2)c1 [Compound B7, 4-fluoro-2-methyl-N-[3-(3-morpholin-4-ylsulfonylanilino)quinoxalin-2-yl]benzenesulfonamide]
concentrations well-tolerated by PAMs (MTT assay) ([1]; 24 h): below 25 μM
IC50 ([1]; Sus scrofa, Macrophage, 24 h incubation, read-out: IC50, cell viability in MTT assay): 81.7 µM
CC50 at 24 h [2]: 81.7 µM
viral RNA detected in infected PAMs (qRT-PCR), all PRRSV strains [3]: significantly decreased the viral RNA; also recorded: significantly inhibited the infection
Lipemia Index ([4]; rat, IM 4 mg/kg, Day 7 blood): Normal
ALB/GLOB ratio [4, 5]: 1.2
ALP [4, 5]: 277.5 U/L
ALT [4, 5]: 95.5 U/L
AST [4, 5]: 210.3 U/L and 210.25 U/L
Albumin [4, 5]: 3.5 g/dL
BUN [4, 5]: 16.8 mg/dL
BUN/Creatinine Ratio [4, 5]: 76.7
Basophil [4, 5]: 13.5 µL⁻¹
Basophils (%) [4, 5]: 0.3%
Bicarbonate TCO2 [4, 5]: 32.8 mmol/L
Bilirubin - Conjugated [4, 5]: 0.0 mg/dL
Bilirubin - Unconjugated [4, 5]: 0.1 mg/dL
Calcium [4, 5]: 11.8 mg/dL
Chloride [4, 5]: 97.0 mmol/L
Cholesterol [4, 5]: 76.0 mg/dL
Creatine kinase [4, 5]: 585.5 U/L
Creatinine [4, 5]: 0.2 mg/dL
Eosinophil [4, 5]: 19.0 µL⁻¹
Eosinophils (%) [4, 5]: 0.5%
Globulin [4, 5]: 2.9 g/dL
Glucose [4, 5]: 175.5 mg/dL
HCT [4, 5]: 50.1% and 50.075%
HGB [4, 5]: 14.4 g/dL and 14.35 g/dL
Lymphocyte [4, 5]: 3188.0 µL⁻¹
Lymphocytes (%) [4, 5]: 83.1% and 83.125%
MCH [4, 5]: 18.9 pg
MCHC [4, 5]: 28.7 g/dL
MCV [4, 5]: 65.8 fL
Monocyte [4, 5]: 179.5 µL⁻¹
Monocytes (%) [4, 5]: 4.8%
NA/K Ratio [4, 5]: 22.3
Neutrophil [4, 5]: 425.0 µL⁻¹
Neutrophil (%) [4, 5]: 11.4% and 11.35%
Phosphorus [4, 5]: 13.0 mg/dL
Potassium [4, 5]: 6.7 mmol/L
RBC [4, 5]: 7.6 M/μL L
Sodium [4, 5]: 145.8 mmol/L
Total Bilirubin [4, 5]: 0.1 mg/dL
Total Protein [4, 5]: 6.4 g/dL
WBC [4, 5]: 3.8 K/μL
blood cell counts, B7-treatment versus control ([4]; single IM 4 mg/kg, Day 7): no obvious change for blood cell counts
blood chemistry analysis, B7 versus control ([4]; single IM 4 mg/kg, Day 7): only ALP and AST were changed slightly with statistical significances
gross pathology, kidney ([4]; single IM 4 mg/kg, Day 7 necropsy, T4 = B7 rat): cortical surface of kidney had multiple, mild tan discolorations
gross pathology, liver ([4]; single IM 4 mg/kg, Day 7 necropsy, T = B7 rats, C = control rats): multifocal to coalescing mild pale tan discoloration on the surface of liver of C2, T3 and T4
daily weight gain and body temperature ([4]; single IM 4 mg/kg, Days 1-7): normal daily weigh gain and body temperature
signs of abnormality during the 7-day study ([4]; single IM 4 mg/kg, n=4): No signs of abnormality were observed
